Results published in patent US11338004B2, “Composition for preventing or treating cranial nerve disease comprising fomes fomentarius extract, fraction thereof, or compound isolated therefrom as active ingredient” (priority 2015, dated 2022).

Assays:
xanthine oxidase = xanthine oxidase (Homo sapiens, UniProt P47989); assay: Xanthine oxidase inhibitory activity; format: biochemical
Protocol: 0.2 ml of the substrate solution in which 2 mM xanthine was dissolved was added to 0.1 ml of a sample solution and 0.6 ml of 0.1 M potassium phosphate buffer at pH 7.5, and 0.1 ml of 0.2 unit/ml xanthine oxidase was added thereto, followed by reaction at 37° C. for 5 minutes. Then, 1 ml of 1N HCl was added to terminate the reaction, and then the absorbance of the uric acid produced in the reaction solution was measured at 292 nm. The inhibitory activity of xanthine oxidase was shown by the absorbance reduction rate of the addition group and the non-addition group of the sample solution.
Xanthine oxidase acts as a rate-limiting enzyme in the terminal oxidation of all purines and is an enzyme that acts as a source of oxidizing agents such as superoxide radicals and hydrogen peroxide. The superoxide anion inhibition by xanthine/xanthine oxidase enzymes is shown by superoxide anion scavenging activity and xanthine oxidase inhibition and has biologically important meaning through inhibition of gout and formation of free radicals. The superoxide radical scavenging effects of 10, 20, 40, 80, 160, 320, and 640 μg mL-1 of each fraction extract of the Fomes fomentarius were compared using butylated hydroxy anisole (BHA) as a positive control group.
The superoxide radical scavenging effects of 10, 20, 40, 80, 160, 320, and 640 μg mL-1 of the Acer tegmentosum maxim extract were compared using butylated hydroxy anisole (BHA) as a positive control group.
The superoxide radical scavenging effects of 10, 20, 40, 80, 160, 320, and 640 μg mL-1 of the berchemia berchemiaefolia extract were compared using butylated hydroxy anisole (BHA) as a positive control group.
The superoxide radical scavenging effects of 10, 20, 40, 80, 160, 320, and 640 μg mL-1 of the Lithospermum erythrorhizon extract were compared using butylated hydroxy anisole (BHA) as a positive control group.

[1] = DPPH radical scavenging activity
Protocol: The present experiment used the property that the hydrazyl of diphenylpicrylhydrazyl (DPPH) used in the present experiment has a property of easily accepting a hydrogen atom since the nitrogen atom is unstable, so as to react with the antioxidant material to accept the hydrogen atom to lose its own orthochromatism.
First, in order to measure DPPH radical scavenging activity of the Fomes fomentarius fraction, 1.9 ml of 0.2 mM DPPH solution (99.5% ethanol) was added to 0.1 ml of solutions (control: 99.5% ethanol) in which the concentrated dried material of each Fomes fomentarius substance was prepared at 7 concentrations of 10, 20, 40, 80, 160, 320 and 640 μg/ml, respectively. The mixture was shaken with a vortex mixer for 10 seconds and then incubated at 37° C. for 30 minutes. Then, the absorbance was measured at 517 nm using a spectrophotometer.
As a positive control drug, L-ascorbic acid was prepared at […] of 10, 20, 40, 80, 160, 320, and 640 μg/mL (99.5% ethanol).
The present inventors measured DPPH radicals scavenging activity in the same manner as in Example <2-2> above using nonadecanone (2-nonadecanone) and docosenol (cis-13-Docosenol) compounds found in the above and Fomes fomentarius CHCl3 fraction of the present disclosure.
First, in order to measure DPPH radical scavenging activity of the Acer tegmentosum maxim extract, 1.9 ml of 0.2 mM DPPH solution (99.5% ethanol) was added to 0.1 ml of solutions (control: 99.5% ethanol) in which the concentrated dried material of each Acer tegmentosum maxim material was prepared at 7 concentrations of 10, 20, 40, 80, 160, 320 and 640 μg/ml, respectively. The mixture was shaken with a vortex mixer for 10 seconds and then incubated at 37° C. for 30 minutes. Then, the absorbance was measured at 517 nm using a spectrophotometer.
As a positive control, L-ascorbic acid was prepared at […] of 10, 20, 40, 80, 160, 320, and 640 μg/mL (99.5% ethanol).
First, in order to measure DPPH radical scavenging activity of the berchemia berchemiaefolia extract, 1.9 ml of 0.2 mM DPPH solution (99.5% ethanol) was added to 0.1 ml of solutions (control: 99.5% ethanol) in which the concentrated dried material of each berchemia berchemiaefolia material was prepared at 7 concentrations of 10, 20, 40, 80, 160, 320 and 640 μg/ml, respectively. The mixture was shaken with a vortex mixer for 10 seconds and then incubated at 37° C. for 30 minutes. Then, the absorbance was measured at 517 nm using a spectrophotometer.
First, in order to measure DPPH radical scavenging activity of the Lithospermum erythrorhizon extract, 1.9 ml of 0.2 mM DPPH solution (99.5% ethanol) was added to 0.1 ml of solutions (control: 99.5% ethanol) in which the concentrated dried material of each Lithospermum erythrorhizon material was prepared at 7 concentrations of 10, 20, 40, 80, 160, 320 and 640 μg/ml, respectively. The mixture was shaken with a vortex mixer for 10 seconds and then incubated at 37° C. for 30 minutes. Then, the absorbance was measured at 517 nm using a spectrophotometer.

AChE = AChE (Homo sapiens, UniProt P22303); assay: Acetylcholinesterase inhibitory activity; format: biochemical; settings: read-out: acetylcholinesterase inhibitory activity (%)
Protocol: AChE and acetylthocholine iodine (ATC) were dissolved in 100 mM phosphate buffer (pH 8.0) to prepare 0.25 U/mL and 75 mM, respectively. […] 2.8 mL of phosphate buffer (100 mM, pH 8.0), 30 μL of AChE (0.25 U/mL), and 100 μL of DTNB were added to 30 μL of the extract, and were mixed. Then, the mixture was preincubated at 37° C. for 10 minutes. Then, 30 μL of substrate ATC was added thereto and was reacted at 37° C. for 3 minutes, and then the absorbance was measured at 412 nm. As a control group, 30 μL of 100 mM phosphate buffer (pH 8.0) was added instead of the extract, and then was measured.

Sequence of AChE (P22303 32-614): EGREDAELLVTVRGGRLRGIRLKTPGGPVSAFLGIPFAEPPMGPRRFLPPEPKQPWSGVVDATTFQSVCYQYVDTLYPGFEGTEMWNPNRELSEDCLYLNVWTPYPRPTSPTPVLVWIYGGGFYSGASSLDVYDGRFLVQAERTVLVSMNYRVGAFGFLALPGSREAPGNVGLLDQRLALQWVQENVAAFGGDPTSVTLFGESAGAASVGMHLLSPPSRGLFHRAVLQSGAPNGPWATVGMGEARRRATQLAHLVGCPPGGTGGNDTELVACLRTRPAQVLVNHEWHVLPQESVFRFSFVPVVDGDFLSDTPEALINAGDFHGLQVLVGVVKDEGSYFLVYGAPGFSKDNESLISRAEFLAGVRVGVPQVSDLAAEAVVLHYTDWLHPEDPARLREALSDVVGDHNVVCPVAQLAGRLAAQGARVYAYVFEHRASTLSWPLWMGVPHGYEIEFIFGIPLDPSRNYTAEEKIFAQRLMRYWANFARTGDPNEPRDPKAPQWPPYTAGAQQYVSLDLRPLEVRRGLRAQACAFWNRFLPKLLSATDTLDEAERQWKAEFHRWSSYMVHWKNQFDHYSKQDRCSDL
Sequence of xanthine oxidase (P47989 whole entry, species assumed): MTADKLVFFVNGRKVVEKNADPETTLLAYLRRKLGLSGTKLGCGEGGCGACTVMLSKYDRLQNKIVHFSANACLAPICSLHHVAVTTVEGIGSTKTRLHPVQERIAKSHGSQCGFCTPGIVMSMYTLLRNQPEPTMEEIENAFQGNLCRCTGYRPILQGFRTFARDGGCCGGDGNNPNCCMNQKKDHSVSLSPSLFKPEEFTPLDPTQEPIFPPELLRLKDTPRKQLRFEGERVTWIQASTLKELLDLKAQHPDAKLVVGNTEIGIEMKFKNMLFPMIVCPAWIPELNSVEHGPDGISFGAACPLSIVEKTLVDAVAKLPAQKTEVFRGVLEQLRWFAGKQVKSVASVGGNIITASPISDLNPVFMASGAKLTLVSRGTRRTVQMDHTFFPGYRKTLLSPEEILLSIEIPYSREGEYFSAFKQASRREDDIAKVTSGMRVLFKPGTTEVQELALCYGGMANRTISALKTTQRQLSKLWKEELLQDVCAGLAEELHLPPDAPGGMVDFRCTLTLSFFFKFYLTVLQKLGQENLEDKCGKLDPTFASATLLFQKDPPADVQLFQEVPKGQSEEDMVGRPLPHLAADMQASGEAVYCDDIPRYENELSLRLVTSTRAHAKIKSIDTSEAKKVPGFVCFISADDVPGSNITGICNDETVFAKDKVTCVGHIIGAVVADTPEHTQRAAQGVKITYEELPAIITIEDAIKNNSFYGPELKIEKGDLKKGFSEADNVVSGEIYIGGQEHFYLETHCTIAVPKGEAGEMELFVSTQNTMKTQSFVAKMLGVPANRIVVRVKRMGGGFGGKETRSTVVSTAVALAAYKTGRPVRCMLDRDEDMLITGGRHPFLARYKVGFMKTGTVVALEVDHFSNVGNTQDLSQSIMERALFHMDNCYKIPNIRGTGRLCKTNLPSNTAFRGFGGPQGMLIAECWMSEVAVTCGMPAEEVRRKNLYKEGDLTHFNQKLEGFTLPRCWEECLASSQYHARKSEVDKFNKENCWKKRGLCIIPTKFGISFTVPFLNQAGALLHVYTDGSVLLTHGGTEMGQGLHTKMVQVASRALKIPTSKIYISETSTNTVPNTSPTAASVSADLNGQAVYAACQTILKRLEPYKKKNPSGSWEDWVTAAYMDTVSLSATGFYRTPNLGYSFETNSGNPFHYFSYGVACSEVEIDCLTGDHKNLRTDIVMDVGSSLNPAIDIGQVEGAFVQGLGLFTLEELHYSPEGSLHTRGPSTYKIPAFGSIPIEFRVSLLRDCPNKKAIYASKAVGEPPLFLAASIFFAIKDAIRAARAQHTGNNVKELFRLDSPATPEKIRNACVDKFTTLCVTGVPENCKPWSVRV

With `COc1ccc(O)c(C(C)(C)C)c1` [BHA, butylated hydroxyanisole] the “xanthine oxidase inhibitory activity” value (xanthine oxidase; 10 μg/mL) was 24.1±0.1, the “xanthine oxidase inhibitory activity” value (xanthine oxidase; 20 μg/mL) was 35.8±0.3 and the “xanthine oxidase inhibitory activity” value (xanthine oxidase; 40 μg/mL) was 58.1±0.4. The “xanthine oxidase inhibitory activity” value (xanthine oxidase; 80 μg/mL) was 68.1±0.5, the “xanthine oxidase inhibitory activity” value (xanthine oxidase; 160 μg/mL) was 76.1±0.8 and the “xanthine oxidase inhibitory activity” value (xanthine oxidase; 320 μg/mL) was 83.5±1.2. For the same molecule, the “xanthine oxidase inhibitory activity” value (xanthine oxidase; 640 μg/mL) was 85.6±1.3 and the “xanthine oxidase inhibition of the positive control group” value (xanthine oxidase; concentration not stated (Example 2-18)) was 94.1%.
With `O=C1O[C@H]([C@@H](O)CO)C(O)=C1O` [ascorbic acid, L-ascorbic acid, reference compound] the “DPPH radical scavenging activity (% antioxidant activity)” value ([1]; 10 μg/mL) was 70.5±4.5% and about 70.5%, the “DPPH radical scavenging activity (% antioxidant activity)” value ([1]; 20 μg/mL) was 71.8±12.5% and about 71.8% and the “DPPH radical scavenging activity (% antioxidant activity)” value ([1]; 40 μg/mL) was 74.1±8.2% and about 74.1%. For the same molecule, the “DPPH radical scavenging activity (% antioxidant activity)” value ([1]; 80 μg/mL) was 77.8±7.6% and about 77.8%, the “DPPH radical scavenging activity (% antioxidant activity)” value ([1]; 160 μg/mL) was 80.6±4.5% and about 80.6% and the “DPPH radical scavenging activity (% antioxidant activity)” value ([1]; 320 μg/mL) was 83.2±9.6% and about 83.2%. The “DPPH radical scavenging activity (% antioxidant activity)” value ([1]; 640 μg/mL) was 84.5±7.7% and about 84.5%, the inhibition at 10 µg/mL (AChE) was 35.8 ± 3.5% and the inhibition at 20 µg/mL (AChE) was 45.1 ± 4.5%. For the same molecule, the inhibition at 40 µg/mL (AChE) was 51.8 ± 6.5%, the inhibition at 80 µg/mL (AChE) was 61.1 ± 4.1% and the inhibition at 160 µg/mL (AChE) was 61.9 ± 3.8%. For the same molecule, the inhibition at 320 µg/mL (AChE) was 76.1 ± 4.6%, the inhibition at 640 µg/mL (AChE) was 87.9 ± 5.6% and the inhibition at 10 µg/mL (xanthine oxidase; 10 μg/mL) was 24.1 ± 1.8%. The inhibition at 20 µg/mL (xanthine oxidase; 20 μg/mL) was 35.1 ± 2.5%, the inhibition at 40 µg/mL (xanthine oxidase; 40 μg/mL) was 58.1 ± 0.9% and the inhibition at 80 µg/mL (xanthine oxidase; 80 μg/mL) was 68.1 ± 1.1%. The inhibition at 160 µg/mL (xanthine oxidase; 160 μg/mL) was 76.1 ± 2.5%, the inhibition at 320 µg/mL (xanthine oxidase; 320 μg/mL) was 83.5 ± 3.5% and the inhibition at 640 µg/mL (xanthine oxidase; 640 μg/mL) was 85.6 ± 2.8%.
